These are literature values, as cited in US8815303B2, “Multifunctional compositions having combined insecticidal, miticidal and fungicidal activity” (priority 2004, dated 2014).

The structures appear in SMILES notation. Read-outs that look alike come from different tables or passages of the source.

The test system of data set [1] is powdery mildew and/or blackspot. To be noted: for management of powdery mildew and/or blackspot: weekly sprays of 0.5% (w/w) aqueous solution.
Another data set concerns rose powdery mildew. As to conditions: intact plants, after one adaxial foliar spray application.
Where [2] appears, read: 0.5% concentration (the more effective dose).

With `O=C([O-])O.[K+]` [potassium bicarbonate], the powdery mildew severity entry in data set [1] (0.25% concentration) is on record as “significantly reduce”. In data set [1] (setting [2]), the powdery mildew severity entry is “significantly reduce”. Further, in data set [1], the “management of powdery mildew and/or blackspot” value is on record as “significantly managed”. Moreover, in the data set with rose powdery mildew, the host epidermal layers result is given as “recover completely from infection” and the superficial pathogen structures result was “eradicated”.
On to `O=C([O-])O.[Na+]` [sodium bicarbonate], for which the powdery mildew severity entry in data set [1] (0.25% concentration) and in data set [1] (setting [2]) was “significantly reduce” each time. The “management of powdery mildew and/or blackspot” value in data set [1] was “significantly managed”.
